Usually IC50 stands for the concentration needed to halve the response being measured. In general, inhibition refers to the percentage by which the read-out fell short of the control. A lower inhibition goes with a weak effect.

Drawing on ChEMBL document CHEMBL2413002, “A convenient synthesis of lubeluzole and its enantiomer: evaluation as chemosensitizing agents on human ovarian adenocarcinoma and lung carcinoma cells” (Bioorg Med Chem Lett, 2013), this text covers IC50 and inhibition for 4 compounds.

For experiment [1], the system named is A549. Description: Cytotoxicity against human A549 cells after 72 hrs by MTT assay. Type of experiment: functional, cell-based. Conditions: A549, 72 h.
For experiment [2], the system named is A2780. Description: Cytotoxicity against human A2780 cells after 72 hrs by MTT assay. Type of experiment: functional, cell-based. Conditions: A2780, 72 h. (Tetrazolium dyes change colour on reduction, which living cells bring about.)
Experiment [3] deals with A549. Description: Antiproliferative activity against human A549 cells at 0.005 uM after 72 hrs by MTT assay. Type of experiment: functional. Particulars: A549, 72 h.
Experiment [4] concerns A2780. Description: Antiproliferative activity against human A2780 cells at 0.005 uM after 72 hrs by MTT assay. The experiment is classed as functional. Particulars: A2780, 72 h.

Structures are written as SMILES.

`CN(c1nc2ccccc2s1)C1CCN(C[C@@H](O)COc2ccc(F)c(F)c2)CC1`: the IC50 in the experiment with A549 [1] came to 18 µM; in the experiment on A2780 [2], 14 µM.
For the compound `COc1cccc2c1C(=O)c1c(O)c3c(c(O)c1C2=O)C[C@@](O)(C(=O)CO)C[C@@H]3O[C@H]1C[C@H](N)[C@H](O)[C@H](C)O1` [DOXORUBICIN], in the experiment with A2780 [2], the IC50 was found to be 0.023 µM.
Turning to `CN(c1nc2ccccc2s1)C1CCN(C[C@H](O)COc2ccc(F)c(F)c2)CC1` [LUBELUZOLE], the inhibition at 0.005 µM in the experiment with A549 [3] turned out to be 5.2%; with A2780 [4] it was 4.3%. Moreover, the IC50 in the experiment with A549 [1] came to 14 µM; with A2780 [2], 5.7 µM.
`CC(=O)O[C@H]1C(=O)[C@@]2(C)[C@H]([C@H](OC(=O)c3ccccc3)[C@]3(O)C[C@H](OC(=O)[C@H](O)[C@@H](NC(=O)c4ccccc4)c4ccccc4)C(C)=C1C3(C)C)[C@]1(OC(C)=O)CO[C@@H]1C[C@@H]2O` [PACLITAXEL] had an IC50 with A549 [1] of 0.014 µM.
